The source of these data is patent US20020150626A1, “Lipid-protein-sugar particles for delivery of nucleic acids” (priority 2000, published 2002).

Where two headings read alike, the source gives them in different places.

Data set [1] is described as follows: Median lethal dose of bupivacaine (literature). It is filed as in vivo. Conditions: in a 350 g rat.
For data set [2] the following is noted: rat, in vivo.
Procedure: The presence of functional deficits in the un-injected extremity was used as a measure of the degree of systemically distributed local anesthetic (i.e., toxicity). Thermal latency (the length of time that a rat would leave his paw on the hotplate) was measured in the un-injected leg at predetermined intervals, in rats who received 10% bupivacaine LPSPs or 50% bupivacaine microspheres (FIG. 4).
The conditions of data set [3]: adult rats; Kohane et al. 1998; cited from earlier work.

In the case of `CCCCN1CCCCC1C(=O)Nc1c(C)cccc1C` (stereo not drawn) [bupivacaine in solution, bupivacaine], the figures for the median lethal dose in data set [1] and in data set [3] were 10.5 mg and 30 ± 5 mg/kg, respectively. The “signs of systemic toxicity (contralateral thermal latency)” value in data set [2] is “one of those rats had severe signs of systemic toxicity”.
